Test results from the supplement of paper PMC10307832.

Key:
Test in all cases: relative viability (nuclei count vs DMSO), 5 days (fraction); higher = more cells survive
SK-LU-1 = test system: SK-LU-1
Summary of the method: (§1)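 Each reported value is a median over duplicate plates. It expresses relative viability: treated-well nuclei count divided by vehicle-well nuclei count. Lung cancer cell lines in 1536-well plates were dosed by pin tool a day after seeding, alone with one drug or with a fixed anchor-drug dose plus five library-drug doses (not always all listed) in √10 steps, and nuclei were counted after 5 days.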

HCC-78 = test system: HCC-78
Summary of the method: as §1

SW 1573 = test system: SW 1573
Summary of the method: as §1

NCI-H1975 = test system: NCI-H1975
Summary of the method: as §1

LCLC-103H = test system: LCLC-103H
Summary of the method: as §1

NCI-H23 = test system: NCI-H23
Summary of the method: as §1

NCI-H3122 = test system: NCI-H3122
Summary of the method: as §1

LU99A = test system: LU99A
Summary of the method: as §1

RERF-LC-KJ = test system: RERF-LC-KJ
Summary of the method: as §1

LK-2 = test system: LK-2
Summary of the method: as §1

NCI-H2085 = test system: NCI-H2085
Summary of the method: as §1

ChaGo-K-1 = test system: ChaGo-K-1
Summary of the method: as §1

HCC-366 = test system: HCC-366
Summary of the method: as §1

SW 900 = test system: SW 900
Summary of the method: as §1

NCI-H2405 = test system: NCI-H2405
Summary of the method: as §1

NCI-H1666 = test system: NCI-H1666
Summary of the method: as §1

HCC-44 = test system: HCC-44
Summary of the method: as §1

EMC-BAC-2 = test system: EMC-BAC-2
Summary of the method: as §1

NCI-H1563 = test system: NCI-H1563
Summary of the method: as §1

EPLC-272H = test system: EPLC-272H
Summary of the method: as §1

LXF-289 = test system: LXF-289
Summary of the method: as §1

NCI-H2126 = test system: NCI-H2126
Summary of the method: as §1

HCC-827 = test system: HCC-827
Summary of the method: as §1

LOU-NH91 = test system: LOU-NH91
Summary of the method: as §1

## CC(C)Oc1cc(Nc2nc(N[C@@H](C)c3ccc(F)cn3)ncc2Cl)n[nH]1 [AZ23] + N=C(N)NC(=N)NCCc1ccccc1 [Phenformin] (partner 250 µM)
SK-LU-1; first compound 0.03162 µM
  relative viability: 0.586
SK-LU-1; first compound 0.3162 µM
  relative viability: 0.517
HCC-78; first compound 0.01 µM
  relative viability: 0.692
HCC-78; first compound 0.03162 µM
  relative viability: 0.656
HCC-78; first compound 0.3162 µM
  relative viability: 0.583
SW 1573; first compound 0.01 µM
  relative viability: 0.347
SW 1573; first compound 0.03162 µM
  relative viability: 0.512
SW 1573; first compound 0.3162 µM
  relative viability: 0.465
NCI-H1975; first compound 0.01 µM
  relative viability: 0.43
NCI-H1975; first compound 0.03162 µM
  relative viability: 0.416
NCI-H1975; first compound 0.3162 µM
  relative viability: 0.397
LCLC-103H; first compound 0.01 µM
  relative viability: 0.339
LCLC-103H; first compound 0.03162 µM
  relative viability: 0.352
LCLC-103H; first compound 0.3162 µM
  relative viability: 0.333
NCI-H23; first compound 0.03162 µM
  relative viability: 0.89
NCI-H23; first compound 0.3162 µM
  relative viability: 0.783
NCI-H3122; first compound 0.01 µM
  relative viability: 0.387
NCI-H3122; first compound 0.03162 µM
  relative viability: 0.439
NCI-H3122; first compound 0.3162 µM
  relative viability: 0.373
LU99A; first compound 0.01 µM
  relative viability: 0.912
LU99A; first compound 0.03162 µM
  relative viability: 0.976
LU99A; first compound 0.3162 µM
  relative viability: 0.882
RERF-LC-KJ; first compound 0.01 µM
  relative viability: 0.455
RERF-LC-KJ; first compound 0.03162 µM
  relative viability: 0.457
RERF-LC-KJ; first compound 0.3162 µM
  relative viability: 0.463
LK-2; first compound 0.01 µM
  relative viability: 0.303
LK-2; first compound 0.03162 µM
  relative viability: 0.401
LK-2; first compound 0.3162 µM
  relative viability: 0.311
NCI-H2085; first compound 0.01 µM
  relative viability: 0.727
NCI-H2085; first compound 0.03162 µM
  relative viability: 0.705
NCI-H2085; first compound 0.3162 µM
  relative viability: 0.779
ChaGo-K-1; first compound 0.01 µM
  relative viability: 0.497
ChaGo-K-1; first compound 0.03162 µM
  relative viability: 0.458
ChaGo-K-1; first compound 0.3162 µM
  relative viability: 0.529
HCC-366; first compound 0.01 µM
  relative viability: 0.614
HCC-366; first compound 0.03162 µM
  relative viability: 0.641
HCC-366; first compound 0.3162 µM
  relative viability: 0.658
SW 900; first compound 0.01 µM
  relative viability: 0.734
SW 900; first compound 0.03162 µM
  relative viability: 0.879
SW 900; first compound 0.3162 µM
  relative viability: 0.799
NCI-H2405; first compound 0.01 µM
  relative viability: 0.33
NCI-H2405; first compound 0.03162 µM
  relative viability: 0.429
NCI-H2405; first compound 0.3162 µM
  relative viability: 0.382
NCI-H1666; first compound 0.01 µM
  relative viability: 0.566
NCI-H1666; first compound 0.03162 µM
  relative viability: 0.802
NCI-H1666; first compound 0.3162 µM
  relative viability: 0.538
HCC-44; first compound 0.01 µM
  relative viability: 0.231
HCC-44; first compound 0.03162 µM
  relative viability: 0.4
HCC-44; first compound 0.3162 µM
  relative viability: 0.245
EMC-BAC-2; first compound 0.01 µM
  relative viability: 0.545
EMC-BAC-2; first compound 0.03162 µM
  relative viability: 0.603
EMC-BAC-2; first compound 0.3162 µM
  relative viability: 0.526
NCI-H1563; first compound 0.01 µM
  relative viability: 0.708
NCI-H1563; first compound 0.03162 µM
  relative viability: 0.653
NCI-H1563; first compound 0.3162 µM
  relative viability: 0.707
EPLC-272H; first compound 0.01 µM
  relative viability: 0.33
EPLC-272H; first compound 0.03162 µM
  relative viability: 0.302
EPLC-272H; first compound 0.3162 µM
  relative viability: 0.378
LXF-289; first compound 0.01 µM
  relative viability: 0.591
LXF-289; first compound 0.03162 µM
  relative viability: 0.512
LXF-289; first compound 0.3162 µM
  relative viability: 0.533
NCI-H2126; first compound 0.01 µM
  relative viability: 0.51
NCI-H2126; first compound 0.03162 µM
  relative viability: 0.539
NCI-H2126; first compound 0.3162 µM
  relative viability: 0.532
HCC-827; first compound 0.01 µM
  relative viability: 0.436
HCC-827; first compound 0.03162 µM
  relative viability: 0.42
HCC-827; first compound 0.3162 µM
  relative viability: 0.404
LOU-NH91; first compound 0.01 µM
  relative viability: 0.713
LOU-NH91; first compound 0.03162 µM
  relative viability: 0.755
LOU-NH91; first compound 0.3162 µM
  relative viability: 0.728
